Data taken from publication PMC11416940, “Identification and characterization of a small molecule BFstatin inhibiting BrpR, the transcriptional regulator for biofilm formation of Vibrio vulnificus” (Frontiers in Microbiology, 2024).

Target: T1, BrpR
T1 construct: His6-tagged BrpR (brpR gene on pET-28a(+), expressed in E. coli BL21 (DE3))
Assay: microscale thermophoresis (MST) with labeled purified His6-BrpR; supported by EMSA inhibition of promoter DNA binding
Design: species or system Vibrio vulnificus

Question: Which Kd does the source give for `CCCNC(=O)CC(=O)Nc1cc(F)ccc1Cl` [175C05, N1-(2-chloro-5-fluorophenyl)-N3-propylmalonamide] here?
Answer: The Kd was 7.14 µM.
